# Literature values as cited in article PMC4387854 (Bioorganic & medicinal chemistry, 2013).
# Marks after values point to notes of the source that are not given here.
# Experiments:
# [1] = female rats with MNU-initiated mammary tumors; ref Grubbs et al. 8
# [2] = preclinical evaluation in rats and dogs or in human trials
compound,measurement,setting,value
"CC(=C/C=C/C(C)=C/C(=O)O)/C=C1\CCCc2ccccc21 [9cUAB30, (2E,4E,6Z,8Z)-8-(3’,4’-Dihydro-1’(2H)-naphthalen-1’-ylidene)-3,7-dimethyl-2,3,6-octatrienoinic acid]",Serum Triglyceride Increase (%),[1],65% ^d
same,Increase in serum TG,[2],no increase
